Assay results taken from patent US20050197350A1, “Novel quinoline, tetrahydroquinazoline, and pyrimidine derivatives and methods of treatment related to the use thereof” (TAISHO PHARMACEUTICAL CO., LTD., priority 2003, published 2005).

Each compound was assayed on MCH receptors (assay: MCH receptor activity class (method not given)). Conditions: not given.
With Cc1cc(N(C)C)nc(N[C@H]2CC[C@@H](C(=O)NCc3ccc(F)cc3F)CC2)n1 [Example 2582, cis-N-(2,4-difluorobenzyl)-4-{[4-(dimethylamino)-6-methylpyrimidin-2-yl]amino}cyclohexanecarboxamide] the class was 1.

Same assay, conditions: MCH receptor activity class 1-3 (percent of control at 10^-7 M or IC50)
CN(C)c1ccnc(N[C@H]2CC[C@@H](CNC(=O)Nc3ccccc3I)CC2)n1 [compound 2424] was tested, and the class was 3 (Class 3 The value of percent of control at 10^−7 M was more than 60% or the value of IC50 was more than 200 nM.).
With Cc1cccc([N+](=O)[O-])c1NC(=O)NC[C@H]1CC[C@@H](Nc2nccc(N(C)C)n2)CC1 [compound 2447, N-[(cis-4-{[4-(dimethylamino)pyrimidin-2-yl]amino}cyclohexyl)methyl]-N′-(2-methyl-6-nitrophenyl)urea] the class was 2 (Class 2: The value of percent of control at 10^−7 M was from 40% to 60% or the value of IC′50 was from 50 nM to 200 nM.).
CN(C)c1cc(N[C@H]2CC[C@@H](NC(=S)NC3CC4CCC3C4)CC2)nc2ccccc12 (relative stereo) [compound 2310] was tested, and the class was 3 (Class 3 The value of percent of control at 10^−7 M was more than 60% or the value of IC50 was more than 200 nM.).
For Cc1cc(Br)cc(C)c1NC(=S)N[C@H]1CC[C@@H](Nc2nccc(N(C)C)n2)CC1 [compound 2328, N-(4-bromo-2,6-dimethylphenyl)-N′-(cis-4-{[4-(dimethylamino)pyrimidin-2-yl]amino}cyclohexyl)thiourea], the class was 1 (Class 1: The value of percent of control at 10^−7 M was less than 40% or the value of IC50 was less than 50 nM.).

Same assay, conditions: MCH receptor; class by percent of control at 10^-7 M or IC50
In the case of CN(C)c1cc(N[C@H]2CC[C@@H](NC(=O)C3C[C@H]3c3ccccc3)CC2)nc2ccccc12 (some centres unmarked) [compound 46], the class is reported as 3 (Class 3 The value of percent of control at 10^−7 M was more than 60% or the value of IC50 was more than 200 nM.).
In the case of CN(C)c1cc(N[C@H]2CC[C@@H](NC(=O)c3cccc(C(F)(F)F)c3F)CC2)nc2ccccc12 [compound 64], the class is reported as 3 (Class 3 The value of percent of control at 10^−7 M was more than 60% or the value of IC50 was more than 200 nM.).
With CN(C)c1cc(N[C@H]2CC[C@@H](NC(=O)c3c(F)c(F)c(F)c(F)c3F)CC2)nc2ccccc12 [compound 130] the class was 3 (Class 3 The value of percent of control at 10^−7 M was more than 60% or the value of IC50 was more than 200 nM.).
For CN(C)c1cc(N[C@H]2CC[C@@H](NC(=O)c3ccc(Cl)c(Cl)c3)CC2)nc2ccccc12 [compound 31], the class was 1 (Class 1: The value of percent of control at 10^−7 M was less than 40% or the value of IC50 was less than 50 nM.).
With CN(C)c1nc(N[C@H]2CC[C@@H](NC(=S)NCc3ccco3)CC2)nc2c1CCCC2 [compound 1940] the class was 3 (Class 3 The value of percent of control at 10^−7 M was more than 60% or the value of IC50 was more than 200 nM.).

Same assay, conditions: activity class 1-3: percent of control at 10^-7 M or IC50
For Cc1c(NC(=O)N[C@H]2CC[C@@H](Nc3nc4c(c(N(C)C)n3)CCCC4)CC2)cccc1[N+](=O)[O-] [compound 1681], the class was 3 (Class 3 The value of percent of control at 10^−7 M was more than 60% or the value of IC50 was more than 200 nM.).
For CCCCCCCCOC(=O)NC[C@H]1CC[C@@H](Nc2cc(N(C)C)c3ccccc3n2)CC1 [compound 1566], the class was 3 (Class 3 The value of percent of control at 10^−7 M was more than 60% or the value of IC50 was more than 200 nM.).

Same assay, conditions: activity class per percent of control at 10^-7 M or IC50
CCCN(CCC)C(=O)[C@H](CCC(=O)N[C@H]1CC[C@@H](Nc2nc3c(c(N(C)C)n2)CCCC3)CC1)NC(=O)c1ccccc1 (relative stereo) [compound 1006] was tested, and the class was 1 (Class 1: The value of percent of control at 10^−7 M was less than 40% or the value of IC50 was less than 50 nM.).
In the case of COc1cc(CN[C@H]2CC[C@@H](Nc3cc(N(C)C)c4ccccc4n3)CC2)cc(OC)c1 [compound 1101], the class is reported as 3 (Class 3 The value of percent of control at 10^−7 M was more than 60% or the value of IC50 was more than 200 nM.).

Same assay, conditions: class 1-3 by percent of control at 10^-7 M or IC50
CN(C)c1nc(N[C@H]2CC[C@@H](NC(=O)c3ccccc3OC(F)(F)F)CC2)nc2c1CCCC2 [compound 554] was tested, and the class was 3 (Class 3 The value of percent of control at 10^−7 M was more than 60% or the value of IC50 was more than 200 nM.).
CN(C)c1nc(N[C@H]2CC[C@@H](NC(=O)c3cccc(C(F)(F)F)c3)CC2)nc2c1CCCC2 [compound 552] was tested, and the class was 1 (Class 1: The value of percent of control at 10^−7 M was less than 40% or the value of IC50 was less than 50 nM.).

Same assay, conditions: class by percent of control at 10^-7 M or IC50
CN(C)c1ccnc(N[C@H]2CC[C@@H](CNCc3ccccc3OC(F)(F)F)CC2)n1 [compound 1289] was tested, and the class was 3 (Class 3 The value of percent of control at 10^−7 M was more than 60% or the value of IC50 was more than 200 nM.).
In the case of CCn1c2ccccc2c2cc(CNC[C@H]3CC[C@@H](Nc4nc5c(c(N(C)C)n4)CCCC5)CC3)ccc21 [compound 1394], the class is reported as 3 (Class 3 The value of percent of control at 10^−7 M was more than 60% or the value of IC50 was more than 200 nM.).
CN(C)c1nc(N[C@H]2CC[C@@H](CNC(=O)/C=C/c3ccc([N+](=O)[O-])cc3)CC2)nc2c1CCCC2 [compound 641] was tested, and the class was 2 (Class 2: The value of percent of control at 10^−7 M was from 40% to 60% or the value of IC′50 was from 50 nM to 200 nM.).
CN(C)c1cccc(C(=O)N[C@H]2CC[C@@H](Nc3nccc(N(C)C)n3)CC2)c1 [compound 844] was tested, and the class was 2 (Class 2: The value of percent of control at 10^−7 M was from 40% to 60% or the value of IC′50 was from 50 nM to 200 nM.).
Cc1cc([N+](=O)[O-])ccc1NC(=S)N[C@H]1CC[C@@H](Nc2nc3c(c(N(C)C)n2)CCCC3)CC1 [compound 1771] was tested, and the class was 3 (Class 3 The value of percent of control at 10^−7 M was more than 60% or the value of IC50 was more than 200 nM.).
With COc1ccc(CN[C@H]2CC[C@@H](Nc3nc4c(c(N(C)C)n3)CCCC4)CC2)c2ccccc12 [compound 1330] the class was 3 (Class 3 The value of percent of control at 10^−7 M was more than 60% or the value of IC50 was more than 200 nM.).
With CCOc1ccc(CNC[C@H]2CC[C@@H](Nc3cc(N(C)C)c4ccccc4n3)CC2)c(OCC)c1 [compound 1170] the class was 2 (Class 2: The value of percent of control at 10^−7 M was from 40% to 60% or the value of IC′50 was from 50 nM to 200 nM.).
With COc1ccc(F)cc1CNC[C@H]1CC[C@@H](Nc2nccc(N(C)C)n2)CC1 [compound 1294] the class was 3 (Class 3 The value of percent of control at 10^−7 M was more than 60% or the value of IC50 was more than 200 nM.).
CN(C)c1cc(N[C@H]2CC[C@@H](NC(=O)CCc3ccc(Cl)c(Cl)c3)CC2)nc2ccccc12 [compound 698] was tested, and the class was 3 (Class 3 The value of percent of control at 10^−7 M was more than 60% or the value of IC50 was more than 200 nM.).
COc1ccc(NC(=O)N[C@H]2CC[C@@H](Nc3cc(N(C)C)c4ccccc4n3)CC2)c(OC)c1 [compound 2141] was tested, and the class was 3 (Class 3 The value of percent of control at 10^−7 M was more than 60% or the value of IC50 was more than 200 nM.).
In the case of CCOc1cc(CNC[C@H]2CC[C@@H](Nc3nccc(N(C)C)n3)CC2)ccc1OC [compound 1255], the class is reported as 1 (Class 1: The value of percent of control at 10^−7 M was less than 40% or the value of IC50 was less than 50 nM.).
In the case of CN(C)c1ccnc(N[C@H]2CC[C@@H](CNC(=O)c3cc(F)c(Cl)cc3Cl)CC2)n1 [compound 384], the class is reported as 2 (Class 2: The value of percent of control at 10^−7 M was from 40% to 60% or the value of IC′50 was from 50 nM to 200 nM.).
In the case of CN(C)c1nc(N[C@H]2CC[C@@H](CNC(=O)c3csc4ccccc34)CC2)nc2c1CCCC2 [compound 653], the class is reported as 3 (Class 3 The value of percent of control at 10^−7 M was more than 60% or the value of IC50 was more than 200 nM.).
CC(C)c1cc(Br)c(NC(=O)N[C@H]2CC[C@@H](Nc3nc4c(c(N(C)C)n3)CCCC4)CC2)c(Br)c1 [compound 1732] was tested, and the class was 3 (Class 3 The value of percent of control at 10^−7 M was more than 60% or the value of IC50 was more than 200 nM.).
CCOc1ccccc1C(=O)NC[C@H]1CC[C@@H](Nc2nc3c(c(N(C)C)n2)CCCC3)CC1 [compound 634] was tested, and the class was 3 (Class 3 The value of percent of control at 10^−7 M was more than 60% or the value of IC50 was more than 200 nM.).
For CCc1ccccc1NC(=O)N[C@H]1CC[C@@H](Nc2nccc(N(C)C)n2)CC1 [compound 2197], the class was 3 (Class 3 The value of percent of control at 10^−7 M was more than 60% or the value of IC50 was more than 200 nM.).
In the case of COc1cc(CC(=O)N[C@H]2CC[C@@H](Nc3nccc(N(C)C)n3)CC2)ccc1OCc1ccccc1 [compound 876], the class is reported as 3 (Class 3 The value of percent of control at 10^−7 M was more than 60% or the value of IC50 was more than 200 nM.).
In the case of CCOc1ccc(Br)cc1CNC[C@H]1CC[C@@H](Nc2cc(N(C)C)c3ccccc3n2)CC1 [compound 1166], the class is reported as 3 (Class 3 The value of percent of control at 10^−7 M was more than 60% or the value of IC50 was more than 200 nM.).

Same assay, conditions: class by percent of control at 10^−7 M or IC50
For Cc1ccc(N(C)C(=O)N[C@H]2CC[C@@H](Nc3ncc(C)c(N(C)C)n3)CC2)cc1 [compound 3024, N′-(cis-4-{[4-(dimethylamino)-5-methylpyrimidin-2-yl]amino}cyclohexyl)-N-methyl-N-(4-methylphenyl)urea], the class was 1 (Class 1: The value of percent of control at 10^−7 M was less than 40% or the value of IC50 was less than 50 nM.).
With Cc1cnc(N[C@H]2CC[C@@H](NC(=O)c3cccc(F)c3)CC2)nc1N(C)C [compound 2897, N-(cis-4-{[4-(dimethylamino)-5-methylpyrimidin-2-yl]amino}cyclohexyl)-3-fluorobenzamide] the class was 1 (Class 1: The value of percent of control at 10^−7 M was less than 40% or the value of IC50 was less than 50 nM.).
With Cc1cc(N(C)C)nc(N[C@H]2CC[C@@H](NC(=O)C(c3ccccc3)c3ccccc3)CC2)n1 [compound 2993, N-(cis-4-{[4-(dimethylamino)-6-methylpyrimidin-2-yl]amino}cyclohexyl)-2,2-diphenylacetamide] the class was 1 (Class 1: The value of percent of control at 10^−7 M was less than 40% or the value of IC50 was less than 50 nM.).
For Cc1cc(N(C)C)nc(N[C@H]2CC[C@@H](NC(=O)c3ccc(Cl)c(C(F)(F)F)c3)CC2)n1 [compound 2982], the class was 1 (Class 1: The value of percent of control at 10^−7 M was less than 40% or the value of IC50 was less than 50 nM.).
